Reference: patent publication US7879792B2, “Synthetic peptide inhibitors of thrombin and thrombin activation of protease activated receptors 1 and 4” (The Regents of the University of Michigan, priority 2005, dated 2011)
Entries after “also recorded” stand apart in the source; their conditions may differ. Where a SMILES comes first, the peptide text is derived from it.

Legend:
[1] = tested on: γ-thrombin-induced platelet aggregation; experiment: γ-thrombin-induced platelet aggregation in human platelet-rich plasma; assay type: cell-based
Experimental: Fresh whole blood was collected and mixed with 0.013 M sodium citrate and platelet-rich plasma was prepared according to the method of Meloni et al., J. Biol. Chem. 266, 6786 (1991). Platelet-rich plasma with a normalized platelet count between 2-2.5×10^8 platelets/ml was added to a cuvette of an aggregometer (Chronlog Corp., Havertown, Pa.), standardized using the protocol of Meloni et al., supra. Peptides to be examined were added to the cuvette and the mixture stabilized for a few moments. Once the baseline was stabilized, γ-thrombin (10-70 nM) (Haematologic Technologies, Essex Junction, Vt.) was added to determine the minimal concentration of the agonist necessary to achieve full platelet aggregation. All investigations with peptides were performed using threshold concentrations of γ-thrombin. Aggregation was allowed to proceed for 5 minutes before stopping.
Table III is a tabulation of the library of peptides prepared and their influence on γ-thrombin-induced platelet aggregation in platelet-rich plasma. […] The numbers in the column represent the minimal concentration (mM) of the peptide that blocked 100% γ-thrombin-induced platelet aggregation of platelets in human platelet-rich plasma.
Human platelet samples were stimulated with 40 nM human gamma thrombin in each experiment.

[2] = tested on: normal human lung fibroblasts (NHLF); experiment: α-thrombin-induced calcium mobilization in normal human lung fibroblasts; assay type: cell-based; conditions: 2 nM alpha thrombin
Experimental: The second assay developed to assess peptides from the combinatorial libraries uses inhibition of α-thrombin-induced calcium mobilization in fibroblasts. Normal human lung fibroblasts (NHLF) were purchased from Clonetics, San Diego, Calif., an affiliate of Bio-Wittaker, Walkersville, Md. The cytoplasmic free Ca^2+ concentration ([Ca^2+]i) was measured using the fluorescent Ca^2+ indicator fura-2 (Molecular Probes, Inc., Eugene, Oreg.). Suspension of fibroblasts in Hepes-Tyrode's buffer were loaded with fura-2 by incubation at 37° C. with 2 μM fura-2/acetoxymethyl ester for 45 minutes according to the method of Rasmussen et al., J. Biol. Chem. 268, 14322 (1993). The labeled fibroblasts were separated from excess probe by washing by centrifugation at 1000 rpm (180 xg). Aliquots of the labeled fibroblasts were transferred into a quartz cuvette with a magnetic stirrer, which was then placed in a thermostatically controlled chamber at 37° C. in a fluorescence spectrophotometer (Perkin-Elmer LS50B spectrofluorometer, Chicago, Ill.). Reagents, test peptide, and α-thrombin (0.25-2 nM), were sequentially added directly to the cuvette. The excitation wavelengths varied between 340 and 380 nm. Fluorescence was measured by recording emitted light at 510 nm as reported by Fisher et al., Mol Pharm. 35, 195 (1989). The minimum emission was determined on a solubilized fibroblast sample in the presence of 10 mM EDTA; maximum emission was determined on the same sample with 10 mM Ca^2+ added. The intrafibroblast free Ca^2+ concentration was calculated by the method of Grykiewicz et al., J. Biol. Chem. 260, 3440 (1985). The ratio of the fluorescence readings was calculated as R=340/380 nm and processed according to the equation [Ca^2+]i=KD((R−Rmin)/Rmax−R))(Sf2/Sb2) to determine the intrafibroblast free Ca^2+ concentration. The KD for fura-2 was assumed to be 224 nM. Rmax and Rmin are the maximum and minimum fluorescence ratios measured at the end of the experiment, respectively; Sf2 and Sb2 are the fluorescence values at 380 nm in the absence and presence of saturating [Ca^2+], respectively. The reaction was monitored for 3-5 minutes.

human α-thrombin = human α-thrombin (Homo sapiens, UniProt P00734); experiment: inhibition of α-thrombin hydrolysis of chromogenic substrate; assay type: biochemical; conditions: Ki (μM) + SD, αIIa (2 nM), alpha-thrombin 2 nM, Sar-Pro-Arg-paranitroanilide
γ-thrombin = experiment: inhibition of γ-thrombin hydrolysis of chromogenic substrate; assay type: biochemical, human; conditions: read-out: Ki (μM) + SD, γIIa (2 nM); gamma-thrombin 2 nM, Sar-Pro-Arg-paranitroanilide
C57BL6 mice = experiment: Rose Bengal model for arterial thrombosis, time to carotid artery occlusion; assay type: in vivo, mouse; conditions: 0.4 to 1.61 mg/kg IP
From the text: C57BL6 mice 6 to 16 weeks of age were anesthetized by intraperitoneal injection with sodium pentobarbital and placed in the supine position on a dissecting microscope (Nikon SMZ-2T, Mager Scientific, Inc., Dexter, Mich.). A midline surgical incision was made to expose the right common carotid artery and a Doppler flow probe (Model 0.5 VB, Transonic Systems, Ithaca, N.Y.) is placed under the vessel. The probe was connected to a flowmeter (Transonic Model T106) and was interpreted with a computerized data acquisition program (Windaq, DATAQ Instruments, Arkron, Ohio). Rose Bengal (4,5,6,7-tetrachloro-3′,6-dihydroxy-2,4,5,7-tetraiodospiro(isobenzofuran-1(3H), 9 [9H] xanthan)-3-1 dipotassium salt) (Fisher Scientific, Fair Lawn, N.J.) at 50 mg/kg in 0.9% saline) was then injected into the tail vein in a 0.12 ml volume (Eitzman et al., Blood 95, 577 (2000)). After injection into the tail vein, a green laser light (Melles Griot, Carlsbad, Calif.) at a wavelength of 540 nm was applied 6 cm from the carotid artery. Flow is monitored continuously from the onset of injury. The time to occlusion was determined only after the vessel remained closed with a cessation of blood flow for 20 min. […] These investigations indicate that these compounds are able to prevent thrombosis in the whole animal in vivo.

thrombin = thrombin (Homo sapiens, UniProt P00734); conditions: read-out: Ki, retrobinders to the active site of thrombin; cited from earlier work

| Molecule | Concentration of Peptide [mM] That Gives 100% Inhibition ([1]; 40 nM human gamma thrombin, human platelet-rich plasma) [mM] | concentration that abolished γ-thrombin-induced platelet aggregation ([1]; 40 nM γ-thrombin) [µM] | alpha thrombin-induced calcium mobilization ([2]; 0.00038 mM peptide) | inhibition of thrombin-induced calcium mobilization ([2]; 0.003 mM peptide) [%] | inhibition of thrombin-induced calcium mobilization ([2]; 0.08 mM peptide) [%] | Ki (human α-thrombin) [µM] | Ki (γ-thrombin) [µM] | time to occlusion of the mouse right carotid artery (C57BL6 mice) | Ki (thrombin) [µM] |
| --- | --- | --- | --- | --- | --- | --- | --- | --- | --- |
| Cc1ccc(C[C@H](NC(=O)[C@@H](CO)NC(=O)[C@@H]2CCCN2C(=O)[C@@H]2C[C@@H]3CCCC[C@@H]3N2C(=O)[C@H](N)CCCNC(=N)N)C(N)=O)cc1 [rOicPsF(p-Me), D-Arg-Oic-Pro-D-Ser-Phe(p-Me)] (HELM PEPTIDE1{[dR].[O=C([C@@H]1C[C@@H]2CCCC[C@@H]2N1[*:1])[*:2]].P.[dS].[Cc1ccc(C[C@H](N[*:1])C(=O)[*:2])cc1].[am]}$$$$V2.0) | 0.016 | 16 | full recovery | 59 | 97 | 6.4 to 10.6 | 42.2 ± 6 | significant prolongation; also recorded: prolonged | – |
| β-Ala-Lys-2Lys-4(Arg-Pro-Pro-Gly-Phe) [MAP4-RPPGF] | – | – | – | – | – | – | – | – | 1750 |
